# PMC5678437, “A new antagonist for CCR4 attenuates allergic lung inflammation in a mouse model of asthma” (Scientific Reports, 2017)
# Like-named read-outs stand apart in the source and are kept apart here.
# What was measured:
# [1] = system: OVA-induced asthmatic mice; assay: Airway hyperresponsiveness to aerosolized methacholine in OVA-induced asthmatic mice; assay type: in vivo, BALB/c mice; details: days 24-26, 24 h after final OVA challenge
# Experimental: Male BALB/c 6 week old mice were purchased from the Experimental Animal Center of Zhejiang University. All mice were raised in a specific pathogen-free animal facility. All animal experiments were carried out according to the guidelines for the care and use of laboratory animals and were approved by the ethics committee of Zhejiang University and Peking University, China.
# Mice were sensitized and challenged with chicken egg OVA (sigma-Aldrich, St Louis, MO, USA) as described in details previously. Briefly, after sensitized by intraperitoneal injection of 100 μl (80 μg) OVA in 100 μl alum (Pierce, Rockford, IL, USA) on days 0 and 14, mice were exposure to 1% OVA aerosols for 40 min on days 24–26. Control mice were injected intraperitoneally with saline and exposed to saline aerosols.
# Compound 8a was dissolved in saline with DMSO (0.5%). Half an hour before each OVA challenge, the groups of mice treated with various doses of compound 8a (0.2, 1, 5 mg) inhaled aerosolized compound 8a for 45 min on days 24–26. Compound 8a aerosols were produced by using a Plexiglas chamber and ultrasonic nebulizer. While the budesonide (BUD) group were administered with 5 mg budesonide, and the vehicle group were treated with compound-dissolved vehicle. The Saline was treated as the control.
# Twenty-four hours after the last challenge, mice were anesthetized and tracheotomized with a cannula, then ventilated at a fixed breathing rate. Once being stabilized, mice were challenged via the airways with saline or increasing concentrations of Mch (1, 2, 4, 8, 16 mg/ml) by nebulization. Airway resistance was measured by FinePointe Series RC Sites (Buxco Research System). Changes in airway resistance were calculated for each Mch concentration.
# CCR4 = target: T1, CCR4 (Homo sapiens, UniProt P51679); assay: Radio ligand competition binding assay on CCR4 cell membrane extract; details: HEK293 CCR4 cell membrane extract, 4 °C, 24 h
# T1 construct: expressed in transfected cells; cell membrane extract
# T1 sequence (P51679 1-360): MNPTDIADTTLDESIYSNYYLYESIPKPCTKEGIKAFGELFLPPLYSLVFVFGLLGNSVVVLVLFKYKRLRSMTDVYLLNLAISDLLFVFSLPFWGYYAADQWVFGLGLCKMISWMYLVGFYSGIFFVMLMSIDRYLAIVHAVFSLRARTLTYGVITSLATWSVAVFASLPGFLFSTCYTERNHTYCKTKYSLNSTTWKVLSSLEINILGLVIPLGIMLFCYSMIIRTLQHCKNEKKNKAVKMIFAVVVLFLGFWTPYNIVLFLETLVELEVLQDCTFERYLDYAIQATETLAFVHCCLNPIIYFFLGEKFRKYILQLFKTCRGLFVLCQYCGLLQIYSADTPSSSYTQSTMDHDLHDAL
# Experimental: A HEK293 cell line stably expressing CCR4-enhanced green fluorescent protein was established. CCL22, CCL17 and C27 were labeled with [^125I]. For competition binding assays, equivalent quantities of cell membrane extract and [^125I]-CCL22, [^125I]-CCL17 and [^125I]-C27 were incubated with varying quantities of unlabeled compound 8a, compound 6b and compound 22. All reactions were incubated at 4 °C for 24 h. After the binding step, 25% polyethylene glycol (6000–8000) and 0.5% human g-globulin were added, and the mixture was incubated at room temperature for 15 min. Binding complexes were obtained by centrifuging the mixture at 3500 rpm for 20 min at 4 °C, and radioactivity was evaluated. Results were corrected for “blank” background radiation, defined as the radioactivity precipitated by polyethylene glycol–g-globulin from the same amount of radioactive ligand in binding buffer in the absence of cells.
# CCR7 = target: T2, CCR7 (Homo sapiens, UniProt P32248); assay: Chemotaxis inhibition assay for receptor specificity, HEK293-CCR7; assay type: cell-based; details: 0.2, 1, 5, 25 μM, 30 min pretreatment
# T2 construct: expressed in transfected cells; host or cells: HEK293, pcDB-CCR7 plasmid made in the authors' laboratory
# T2 sequence (P32248 25-378): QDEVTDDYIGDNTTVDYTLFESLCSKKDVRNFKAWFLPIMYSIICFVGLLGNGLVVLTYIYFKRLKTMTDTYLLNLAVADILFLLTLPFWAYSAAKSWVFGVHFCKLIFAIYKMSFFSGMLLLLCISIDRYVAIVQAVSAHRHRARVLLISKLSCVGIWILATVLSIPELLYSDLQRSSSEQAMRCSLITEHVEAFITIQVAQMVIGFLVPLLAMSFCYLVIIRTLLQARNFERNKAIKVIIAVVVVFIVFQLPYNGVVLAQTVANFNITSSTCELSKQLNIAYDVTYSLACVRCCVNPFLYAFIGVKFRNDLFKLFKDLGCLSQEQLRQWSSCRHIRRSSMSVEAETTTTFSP
# Experimental: (§1) HEK293 cells were transfected with different chemokine receptors. The corresponding chemokines of different receptors were placed in the lower chambers. The transfected cells were pretreated with different concentrations of Compound 8a or 1‰ DMSO for 30 min at a density of 1 × 10^6 cells/ml and added to the upper chambers, the final concentration of the compound is: 0.2 μM, 1 μM, 5 μM, and 25 μM, respectively.
# CXCR1 = target: T3, CXCR1 (Homo sapiens, UniProt P25024); assay: Chemotaxis inhibition assay for receptor specificity, HEK293-CXCR1; assay type: cell-based; details: 0.2, 1, 5, 25 μM, 30 min pretreatment
# T3 construct: expressed in transfected cells; host or cells: HEK293; plasmid gift of Dr. Philip M. Murphy (NIAID, NIH)
# T3 sequence (P25024 1-350): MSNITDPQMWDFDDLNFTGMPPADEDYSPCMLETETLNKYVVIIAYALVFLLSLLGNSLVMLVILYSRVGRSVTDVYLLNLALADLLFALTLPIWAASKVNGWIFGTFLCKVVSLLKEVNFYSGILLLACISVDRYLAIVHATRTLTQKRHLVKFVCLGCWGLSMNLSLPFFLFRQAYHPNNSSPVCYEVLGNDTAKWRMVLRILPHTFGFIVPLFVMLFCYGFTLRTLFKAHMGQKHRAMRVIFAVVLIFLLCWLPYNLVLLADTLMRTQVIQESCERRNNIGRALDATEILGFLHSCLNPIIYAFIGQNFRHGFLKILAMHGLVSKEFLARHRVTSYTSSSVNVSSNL
# Experimental: as §1
smiles,measurement,setting,value
"O=C(C1CCCCN1)N1CCN(c2nc(Cl)cc(NCc3ccc(Cl)cc3Cl)n2)CC1 (centres unmarked) [compound 8a, {4-[4-Chloro-6-(2,4-dichloro-benzylamino)-pyrimidin-2-yl]-piperazin-1-yl}-piperidin-2-yl-methanone]",AHR to methacholine compared with asthmatic mice treated with vehicle,[1]; 0.2 mg inhaled aerosol,significantly lower
same,AHR to methacholine compared with asthmatic mice treated with vehicle,[1]; 1 mg inhaled aerosol,significantly lower
same,AHR to methacholine compared with asthmatic mice treated with vehicle,[1]; 5 mg inhaled aerosol,significantly lower
same,IC50,"CCR4; [125I]-C27, read-out: IC50, competitive binding with C27 to CCR4",62 nM
same,IC50,"CCR4; [125I]-CCL17, read-out: IC50, competitive binding with CCL17 to CCR4",151 nM
same,IC50,"CCR4; [125I]-CCL22, read-out: IC50, competitive binding with CCL22 to CCR4",272 nM
same,inhibition of chemotaxis of HEK293-CCR7 to its ligand,CCR7,few influence
same,inhibition of chemotaxis of HEK293-CXCR1 to its ligand,CXCR1,few influence
